How the values were obtained:
[1] = system: U87MG cells subcutaneous tumor; experiment: Concentration of radioactivity in tumor of labeled compounds (Test Example 4); format: in vivo, mouse; conditions: tail vein, 111In 740 kBq, 64Cu and 90Y 500 kBq
Description: U87MG cells were subcutaneously transplanted at 1×10^7 cells/mouse to the right flank of Balb/cAJcl-nu/nu (CLEA Japan, Inc. or Japan SLC, Inc., 6 to 9 weeks old). After 2 to 3 weeks, the mice were divided into groups each involving 3 individuals per point in time when their tumors became 200 to 500 mm^3. The ^111In-labeled compound (740 kBq) was administered to the tail veins of the mice.
After a given time, the animals were sacrificed to extract their tumors. The weights of the tumors were measured, and the radioactivity was measured using a gamma counter to calculate the concentration of radioactivity in the tumors (% ID/g). In the same way as above, the concentration of radioactivity in the tumors (% ID/g) was calculated for the ^64Cu-labeled compound (500 kBq) and the ^90Y-labeled compound (500 kBq).

[2] = system: U87MG cells subcutaneous tumor; experiment: Imaging of integrin-expressing tumor with gamma camera; format: in vivo; conditions: 1 MBq/mouse tail vein, 24 hours to 72 hours after administration, FIG. 6
Description: U87MG cells were subcutaneously transplanted at 1×10^7 cells/mouse to the right flank of Balb/cAJcl-nu/nu (CLEA Japan, Inc., male, 6 weeks old). After 2 weeks, a dosing solution of the radiolabeled compound [^111In]-(P2) was administered at 1 MBq/mouse to the tail veins of mice whose tumors became 300 to 600 mm^3. 24, 48, and 72 hours after administration, the planar images were taken with a gamma camera (Symbia, Siemens AG) under isoflurane anesthesia. The radioactivity in the tumors (% ID) was calculated by image analysis.

[3] = system: U87MG cells intracranial tumor; experiment: Imaging of integrin-expressing tumor, intracranial tumor model; format: in vivo; conditions: 1 MBq/mouse tail vein, FIG. 7
Description: U87MG cells were intracranially transplanted at 1×10^7 cells/mouse to Balb/cAJcl-nu/nu (CLEA Japan, Inc., male, 6 weeks old) using a tapered needle. After 2 to 4 weeks, a dosing solution of the radiolabeled compound [^111In]-(P2) was administered at 1 MBq/mouse to the tail veins of the mice. 24, 48, and 72 hours after administration, the planar images were taken with a gamma camera (Symbia, Siemens AG) under isoflurane anesthesia (FIG. 7). After the imaging at the final time point, the brain was extracted, and frozen sections were prepared. Several pieces of the tumor sections were contacted with IP plates, and accumulation images were obtained by autoradiography (ARG). The serial sections were stained with hematoxylin-eosin to confirm tumors.

[4] = Blood kinetic parameters in monkey; format: in vivo; conditions: cynomolgus monkey, blood radioactivity, 98 MBq
Description: (§1) Blood kinetic parameters were calculated with OLINDA/EXM 1.0 from the blood concentration of radioactivity by blood collection over time from a cynomolgus monkey using [^111In]-(P2). Also, absorbed doses in each organ in the case of administration to humans were calculated with OLINDA/EXM 1.0 from organ distribution by imaging using [^111In]-(P2). The radiolabeled compound [^111In]-(P2) (98 MBq/[…]) was administered to a cynomolgus monkey (Hamri Co., Ltd., male, 3 years old, 3.4 kg) under anesthesia. After the administration, blood collection and imaging with a gamma camera were performed over time. The blood collection was carried out 10 minutes, 30 minutes, 60 minutes, 2 hours, 4 hours, 5 hours, 6 hours, 24 hours, 48 hours, 72 hours, and 144 hours after administration. The imaging was carried out 1, 2, 4, 6, 24, 48, 72, and 144 hours after administration with a gamma camera (Symbia, Siemens AG) to take planar images. The anesthesia was carried out using 20 mg/kg ketamine before administration of [^111In]-(P2) and maintained by inhalation anesthesia (2 to 3% isoflurane, 5 to 8 L/min) until the completion of the imaging at 6 hours after administration. At or after 24 hours after administration, blood collection and imaging were performed by the introduction of 20 mg/kg ketamine and 2 mg/kg xylazine. […] The blood kinetic parameters are shown below.

[5] = Time-dependent planar imaging of monkey; format: in vivo; conditions: cynomolgus monkey, from administration to 6 hours later, FIG. 9
Description: as §1, with “below. […]” for “below.”

[6] = Absorbed doses in each organ in humans calculated with OLINDA/EXM 1.0 from monkey organ distribution; format: in vivo; conditions: calculated with OLINDA/EXM 1.0 from monkey imaging with [111In]-(P2)
Description: as §1

[7] = Radiochemical purity after standing at room temperature; format: physicochemical
Description: To a mixed solution of compound (P2) (8.5 μg) and a 0.2 mol/L sodium acetate buffer solution (pH 4.0) (1.5 mL), a [^111In] indium chloride solution (80 MBq, 100 μL) was added. The mixture was heated at 100° C. for 15 minutes and then left at room temperature for 5 minutes to obtain radiolabeled compound [^111In]-(P2). […] Its radiochemical purity was 95% or more both immediately after preparation and after standing at room temperature for 24 hours.
To a mixed solution of compound (P2) (79 μg), gentisic acid (1.8 mg), a 0.6 mol/L sodium acetate buffer solution (pH 4.0, 120 μL), and a 0.4 mol/L aqueous sodium hydroxide solution (24 μL), a [^90Y] yttrium chloride solution (700 MBq, 240 μL) was added. The mixture was heated at 100° C. for 20 minutes and then left at room temperature for 5 minutes to obtain radiolabeled compound [^90Y]-(P2). […] Its radiochemical purity was 95% or more both immediately after preparation and after standing at room temperature for 24 hours.
To a mixed solution of compound (P2) ([…]) and a 0.2 mol/L sodium acetate buffer solution (pH 4.0, 219 μL), a [^64Cu] copper chloride solution (pH 5, 35 MBq, 55 μL) was added. The mixture was heated at 100° C. for 15 minutes and then left at room temperature for 5 minutes to obtain radiolabeled compound [^64Cu]-(P2). […] Its radiochemical purity was 90% or more both immediately after preparation and after standing at room temperature for 22 hours.
To a mixed solution of compound (Aa7) (4.2 μg), gentisic acid (1 mg), and a 0.2 mol/L sodium acetate buffer solution (pH 4.0) (5.0 μL), [^64Cu] copper chloride in a 0.2 mol/L sodium acetate buffer solution (pH 4.0) (40 MBq, 155 μL) was added. The mixture was heated at 100° C. for 15 minutes and then left at room temperature for 5 minutes to obtain radiolabeled compound [^64Cu]-(Aa7). […] Its radiochemical purity was 90% or more both immediately after preparation and after standing at room temperature for 24 hours.

[8] = system: U87MG cells subcutaneous tumor; experiment: Imaging of integrin-expressing tumor by PET; format: in vivo; conditions: at the time of anatomy (48 hours after administration), 4.8 MBq/mouse tail vein
Description: U87MG cells were subcutaneously transplanted at 1×10^7 cells/mouse to the right flank of Balb/cAJcl-nu/nu (CLEA Japan, Inc. or Japan SLC, Inc., male, 6 to 9 weeks old). After 2 weeks, the radiolabeled compound [^64Cu]-(P2) was administered at 4.8 MBq/mouse to the tail veins of mice whose tumors became 250 to 650 mm^3. After 1, 4, 24, and 48 hours, the images were taken in microPET/CT (Inveon, Siemens AG) under isoflurane anesthesia. After the imaging at 48 hours after administration, the mice were euthanized by the collection of the whole blood from the postcava under deep anesthesia with isoflurane, followed by tumor extraction. The weights of the tumors were measured, and the radioactivity was measured using a gamma counter to calculate the concentration of radioactivity in the tumors (% ID/g). In the same way as above, [^64Cu]-(Aa7), [^64Cu]-(Ab9-a), and [^64Cu]-(Ab9-b) were imaged. However, the concentration of radioactivity in the tumors was not calculated. The tumor accumulation was confirmed for all of the compounds 1 hour after administration, and the tumors were visualized up to 48 hours later. […] The concentration of radioactivity in the tumors was 5.6% ID/g at the time of anatomy (48 hours after administration).

| Concentration of radioactivity in tumor ([1]; 4 hours later) | Concentration of radioactivity in tumor ([1]; 24 hours later) | Absorbed dose, Brain [6] | Absorbed dose, Kidney [6] | Absorbed dose, Liver [6] | Absorbed dose, Lung [6] | Absorbed dose, Red bone marrow [6] | Absorbed dose, Small intestine [6] | Absorbed dose, Whole body [6] | Compound | further results |
| --- | --- | --- | --- | --- | --- | --- | --- | --- | --- | --- |
| 11.10 % ID/g | 9.62 % ID/g | 0.25 mGy/MBq | 1.19 mGy/MBq | 0.19 mGy/MBq | 0.12 mGy/MBq | 0.05 mGy/MBq | 0.05 mGy/MBq | 0.05 mGy/MBq | Cc1cc(OCCCC(=O)NCCNC(=O)[C@H](CS(=O)(=O)O)NC(=O)CN2CCN(CC(=O)[O-])CCN(CC(=O)[O-])CCN(CC(=O)[O-])CC2)cc(C)c1S(=O)(=O)N[C@@H](CNC(=O)CCCCc1ccc2c(n1)NCCC2)C(=O)O.[111In+3] [[^111In]-(P2)] | radioactivity in tumor versus other organs, planar images [2]: radioactivity was higher in the tumor than other organs; accumulation in intracranial tumor by planar imaging and ARG [3]: consistent with the tumor was confirmed; AUC [4]: 0.22 % ID · h/mL; CL [4]: 2.17 mL/min/kg; Cmax [4]: 0.018 % ID/mL; T½ α [4]: 0.46 h; T½ β [4]: 19.3 h; Vss [4]: 3.52 L/kg; organ accumulation on planar images [5]: accumulation to the bladder and the gallbladder was increased over time; radiochemical purity after standing ([7]; immediately after preparation and after standing at room temperature for 24 hours): ≥ 95% |
| 9.25 % ID/g | 8.48 % ID/g | 0.11 mGy/MBq | 0.69 mGy/MBq | 0.09 mGy/MBq | 0.08 mGy/MBq | 0.01 mGy/MBq | 0.06 mGy/MBq | 0.02 mGy/MBq | Cc1cc(OCCCC(=O)NCCNC(=O)[C@H](CS(=O)(=O)O)NC(=O)CN2CCN(CC(=O)[O-])CCN(CC(=O)[O-])CCN(CC(=O)O)CC2)cc(C)c1S(=O)(=O)N[C@@H](CNC(=O)CCCCc1ccc2c(n1)NCCC2)C(=O)O.[64Cu+2] [[^64Cu]-(P2)] | concentration of radioactivity in the tumors [8]: 5.6 % ID/g; radiochemical purity after standing ([7]; immediately after preparation and after standing at room temperature for 22 hours): ≥ 90% |

Reference: patent publication US11426473B2, “Nitrogen-containing compound or salt thereof, or metal complex thereof” (FUJIFILM Corporation, priority 2013, dated 2022)
